Entries after “also recorded” stand apart in the source; their conditions may differ.
Columns and labels:
[1] = Pharmacokinetics in Sprague-Dawley rats; conditions: rat; for detection in serum samples after oral dose of prodrug: p.o. 25 mg/kg
[2] = Serum stability studies of prodrugs; format: in vitro ADME; conditions: Figure S8
[3] = test system: M. tuberculosis H37Rv; experiment: M. tuberculosis H37Rv MIC assay under iron-deficient conditions; format: cell-based; conditions: Mycobacterium tuberculosis, pH 6.6
[4] = Aqueous solubility; format: physicochemical
[5] = Estimated pKa of the acyl-sulfonyl linker; format: physicochemical
[6] = in vitro; conditions: human, Caco-2, […]
[7] = test system: TB infection; conditions: dosed intraperitoneally; cited from earlier work
[8] = Stability under acidic and alkaline conditions; format: physicochemical; conditions: 24 h at 37 °C
[9] = test system: UDP-gluguronosyl transferase (UDPGT); experiment: Glucuronidation study, rat liver microsomes; conditions: UDPGA
[10] = test system: UDP-gluguronosyl transferase (UDPGT); experiment: Glucuronidation study, human liver microsomes; conditions: UDPGA

Question: With “2′, 3′ -O-di-Acetyl-5′ -O-[N-(2-hydroxybenzoyl)sulfamoyl]adenosine [Compound 2]” as the compound, how does the “detection in serum samples after oral dose of prodrug” value [1] read?
Answer: neither of the parent compounds was detected

Question: And the “serum stability (acetate cleavage)” value [2]?
Answer: slowly hydrolyzed

Question: For `CCN(CC)CC.Nc1nc(-c2ccccc2)nc2c1ncn2[C@@H]1O[C@H](CNS(=O)(=O)NC(=O)c2ccccc2O)[C@@H](O)[C@H]1F` [Compound 9, 2′, 5′-Dideoxy-2′-fluoro-5′-N-[N-(2-hydroxybenzoyl)sulfamoyl]amino-2-phenyladenosine triethylammonium salt], which MIC [3] is on record?
Answer: 1 µg/mL

Question: With `CCN(CC)CC.O=C(NS(=O)(=O)NC[C@H]1O[C@@H](n2cnc3c(NC4CC4)nc(-c4ccccc4)nc32)[C@H](O)[C@@H]1O)c1ccccc1O` [Compound 7, N^6-Cyclopropyl-5′-deoxy-5′-N-[N-(2-hydroxybenzoyl)sulfamoyl]amino-2-phenyladenosine triethylammonium salt] as the compound, how does the “aqueous solubility” value [4] read?
Answer: poor aqueous solubility

Question: What about the MIC [3] of the same compound?
Answer: 4.27 µg/mL

Question: With `CCN(CC)CC.O=C(NS(=O)(=O)NC[C@H]1O[C@@H](n2cnc3c(NC4CC4)ncnc32)[C@H](O)[C@@H]1O)c1ccccc1O` [Compound 6, N^6-Cyclopropyl-5′-deoxy-5′-N-[N-(2-hydroxybenzoyl)sulfamoyl]aminoadenosine triethylammonium salt] as the compound, how does the MIC [3] read?
Answer: 0.06 µg/mL

Question: With “5′-O-[N-(2-Acetoxybenzoyl)sulfamoyl]-2′, 3′-O-di-acetyladenosine [Compound 3]” as the compound, how does the “detection in serum samples after oral dose of prodrug” value ([1]; 25 mg/kg) read?
Answer: neither of the parent compounds was detected; also recorded: only a negligible amount of 1 could be detected

Question: What about the “serum stability (acetate cleavage)” value [2] of the same compound?
Answer: rapidly cleaved

Question: Which results are given for `CCN(CC)CC.Nc1ncnc2c1ncn2[C@@H]1O[C@H](CNS(=O)(=O)NC(=O)c2ccccc2O)[C@@H](O)[C@H]1O` [Compound 4, 5′-N-[N-(2-Hydroxybenzoyl)sulfamoyl]amino-5′ -deoxyadenosine triethylammonium salt]?
Answer: pKa [5]: ~5; Cmax ([1]; female, Sprague-Dawley, in vivo, po, 25 mg/kg): 1400 nM; MIC [3]: 0.11 µg/mL

Question: Which pKa [5] does the source give for `CCN(CC)CC.Nc1ccc(C(=O)NS(=O)(=O)NC[C@H]2O[C@@H](n3cnc4c(N)ncnc43)[C@H](O)[C@@H]2O)c(O)c1` [Compound 5, 5′-N-[N-(4-Amino-2-hydroxybenzoyl)sulfamoyl]amino-5′-deoxyadenosine] here?
Answer: ~6

Question: And the MIC [3]?
Answer: 1.81 µg/mL

Question: For `CCN(CC)CC.Nc1ncnc2c1ncn2[C@@H]1O[C@H](CNS(=O)(=O)NC(=O)c2ccccc2O)[C@@H](O)[C@H]1F` [Compound 8, 5′-N-[N-(2-Hydroxybenzoyl)sulfamoyl]amino-2′, 5′-dideoxy-2′-fluoroadenosine triethylammonium salt], which MIC [3] is on record?
Answer: 0.11 µg/mL

Question: Which results are given for `CCN(CC)CC.Nc1ncnc2c1ncn2[C@@H]1O[C@H](COS(=O)(=O)NC(=O)c2ccccc2O)[C@@H](O)[C@H]1O` [Compound 1, 5′-O-[N-(salicyl)sulfamoyl]adenosine]?
Answer: pKa [5]: ~3; Papp A→B [6]: 1.2 ×10⁻⁶ cm/s; efficacy in acute murine TB infection model [7]: effective; degradation ([8]; acidic (pH 1)): less than 5%; degradation ([8]; alkaline (pH 12)): less than 5%; MIC [3]: 0.2 µg/mL

Question: For `CCN(CC)CC.Nc1ncnc2c1ncn2[C@@H]1O[C@H](CNS(=O)(=O)NC(=O)c2ccccc2O)C[C@H]1F` [Compound 10, 2′, 3′, 5′-Trideoxy-5′-N-[N-(2-hydroxybenzoyl)sulfamoyl]amino-2′-fluoroadenosine triethylammonium salt], which MIC [3] is on record?
Answer: 0.43 µg/mL

Question: With `COc1c(C)c2c(c(O)c1C/C=C(\C)CCC(=O)O)C(=O)OC2` [MPA, Mycophenolic Acid] as the compound, how does the “glucuronidated at 60 min” value [9] read?
Answer: 30%

Question: What about the “glucuronidated at 60 min” value [10] of the same compound?
Answer: 85%

— PMC4667731 (Journal of medicinal chemistry, 2015)
